Laboratory results reported in patent US20250020650A1, “METHOD OF PREDICTING A PATIENT'S BENEFIT FROM THERAPY WITH AN IMMUNE CHECKPOINT INHIBITOR” (EBERHARD KARLS UNIVERSITAET TUEBINGEN MEDIZINISCHE FAKULTAET, priority 2021, published 2025).
Values belong to the compound of their own block, whether it stands above or below them.

Legend:
[1] = tested on: platelets; assay: Controlled platelet stimulation, flow cytometry of pPD-L1; assay type: cell-based, human; conditions: 10 μM TRAP-6, 2.5 μM ADP or 5 μg/mL collagen for 2 minutes, NSCLC patient platelets
Method: Platelets were obtained from healthy donors (not taking any medication for at least 10 days) and NSCLC patients after informed writing consent. Citrated blood was briefly centrifuged for 20 min at 120×g, the upper fraction was harvested as platelet-rich plasma (PRP). Platelets were washed twice with citrate wash buffer (128 mmol/L NaCl, 11 mmol/L glucose, 7.5 mmol/L Na2HPO4, 4.8 mmol/L sodium citrate, 4.3 mmol/L NaH2PO4, 2.4 citric acid, 0.35% bovine serum albumin, and 50 ng/ml prostaglandin E1 (PGE1)). […] For platelet activation 10 μM of the Thrombin Receptor Activator Peptide 6 (TRAP-6), a protease-activated receptor 1 (PAR1) agonist, 2.5 μM ADP or 5 μg/mL Collagen was added to the platelets for 2 minutes. Platelets were fixed by 2% paraformaldehyde for 10 min and washed twice with PBS containing 1% FCS.
Flow cytometry was performed using fluorescence-conjugates or specific mAb and their controls followed by species-specific conjugate (Table 2) using a FACS Cantoll flow cytometer […] or a LSRFortessa (Becton Dickinson) from the flow cytometer facility Tuebingen.
Positive cells in percentage (%) were calculated as follows: Surface expression in percent obtained with the specific antibody—surface expression in percent obtained with isotype control. Platelets were preselected by CD41a^+ and CD62P^− (resting) or CD62P^+ (activated). Data analysis was performed using FlowJo software (v.10). In order to verify the reproducibility of the inventors' flow cytometry system, the inventors performed a Bland-Altman analysis (FIG. 11 f). For immunophenotyping of PBMC subsets of lung cancer patients and healthy control donors were identified by counterstaining with CD3-PECy5 (BD biosciences, San Diego, CA), CD19-APC/Fire750, CD4-Pacific Blue, CD8a-BV605, CD56-PECy7, CD14-BV785, HLA-DR-BV650 (Biolegend, San Diego, CA) and CD16-FITC (Invitrogen). PD-1 and PDL-1 expression as well as activation levels were analyzed using a PD-1-APC or PDL-1-APC and a CD69-PE antibody (BD biosciences), respectively. Isotype controls were obtained from BD biosciences. […]

[2] = target: T1, PD-L1 on platelets (Homo sapiens, UniProt Q9NZQ7); assay: IFNγ ELISPOT and cytokine staining of EBV/CMV peptide-stimulated T cells co-incubated with PD-L1 positive platelets; assay type: cell-based; conditions: platelets from NSCLC patients pre-treated 30 min, EBV/CMV-derived peptides, IFNγ and TNFα
T1 construct: PD-L1 positive platelets from NSCLC patients were pre-treated with the anti-PD-L1 mAB Atezolizumab; endogenous in cells; host or cells: platelets from the peripheral blood of NSCLC patients
Method: Freshly thawed (ex vivo) PBMCs from healthy donors were analyzed by enzyme-linked immunospot (ELISPOT) assay in duplicates. Interferon γ (IFNγ) ELISPOT assays in the inventors' study were performed as described previously. In brief, 96-well nitrocellulose plates (Millipore) were coated with 1 mg/mL anti-IFNγ mAb (Mabtech) and incubated overnight at 4° C. In a next step, plates were blocked with human serum (10%) for 2 hours at 37° C. PBMCs (2.5×10^5 cells per well) were pulsed with an EBV/CMV epitope mix containing the frequently recognized peptides BRLF109-117 […] (SEQ ID NO: 11) (A*02) peptide and CMV pp65 (A*02) peptide NLVPMVATV (SEQ ID NO: 12) and incubated with or without platelets (ratio 1:50) for 24 hours. Phytohemagglutinin was used as positive control. HLA-A*02 (KLFEKVKEV (SEQ ID NO: 13))- and B*07 (KPSEKIQVL (SEQ ID NO: 14))-restricted control peptides derived from benign tissues (HV-exclusive HLA ligands) served as negative control. […] Readout was performed according to the manufacturer's instructions. Spots were counted using an ImmunoSpot S5 analyzer (CTL).
Peptide-specific T cells were further analyzed by intracellular cytokine and cell surface marker staining. […] Viable cells were determined using Aqua live/dead (1:400 dilution, Invitrogen). Samples were analyzed on a FACS Canto II cytometer (BD) and evaluated using FlowJo software v. […]

[3] = target: T1, PD-L1 on platelets; assay: NY-ESO-1 specific CD4+ TEM co-incubated with PD-L1 positive platelets (IFNγ and TNFα); assay type: cell-based; conditions: pPD-L1 positive platelets pre-treated with Atezolizumab 100 μg/mL for 30 min, NY-ESO-1 peptides
Method: The generation of NY-ESO-1-specific T cells was performed using as described previously. In brief, PBMCs from a healthy donor (1×10^7/mL) were stimulated using pools of NY-ESO-1 overlapping peptides (1 μg/mL). The NY-ESO-1 overlapping peptide pool of 15 amino acid length (11 amino acid overlap) was purchased via Miltenyi Biotec. The cells were cultured in RPMI 1640 containing 10% human AB-serum and 1% L-glutamin in the presence of 10 U/mL recombinant IL-2 and 10 ng/ml II-7. Culture medium was replaced every third day. After a pre-sensitization period of 7-14 days, NY-ESO-1 specific, IFNγ^+ T cells were enriched after re-stimulation with NY-ESO-1 peptide pool for 6 h using CliniMACS® (Miltenyi Biotec) technique as reported previously. After enrichment, NY-ESO-1 specific T cells were expanded for 14 days in the presence of IL-7 (10 ng/ml), IL-15 (10 ng/mL) and IL-2 (50 U/mL). T cell specificity was analyzed via intracellular IFNγ staining as stated above. For further characterization of the T-cells the differentiation markers anti-CD45RO, mouse (1:200, clone: HI100), anti-CD62L, mouse (1:400, clone: DREG-56), anti-CD28, mouse (1:200, clone: CD28.2) and anti-CD27, mouse (1:200, clone: M-T271) were co-analyzed by flow cytometry. […] NY-ESO-1 specific T cell activity was determined by intracellular TNFα and IFNγ quantified via flow cytometry as described above.

[4] = tested on: platelet adhesion to fibronectin; assay: Platelet adhesion to fibronectin-coated surface with platelet-blocking agents; assay type: cell-based, human; conditions: washed platelets pretreated 30 minutes at 37° C.; 5 μg/mL anti-CD42b, 20 μg/mL anti-integrin β1 and anti-Integrin α5, 1 μg/mL Tirofiban
Method: To prepare fibronectin matrices, plates were coated with a human plasma fibronectin purified protein (R&D, Minneapolis, MN, USA), (concentration 50 μg/cm^2) for 120 min. For blocking of GPIb-IX-V complex, α5β1 or GPIIbIIIa, washed platelets (8×10^7/mL) were pretreated with 5 μg/mL anti-CD42b (clone: AK2), 20 μg/mL anti-integrin β1 (clone: P4C10) and anti-Integrin α5 (clone: JBS5), 1 μg/mL Tirofiban or corresponding control IgG1 (20 μg/mL) for 30 minutes at 37° C. and 7% CO2. After co-incubation with platelets (8×10^7/mL) for 30 min at 37° C. and 7% CO2, non-adherent platelets were removed via three washing steps using PBS. After removal of non-adherent platelets cells were fixed in 2% PFA in PBS (pH 7.4) for 10 min at −20° C. Platelet adhesion to fibronectin fibrils was evaluated by calculating surface coverage area and platelet count/FoV and from microscopic images using an ImageJ script (v. 1.52).

[5] = tested on: protein translation in platelets; assay: PD-L1 on cycloheximide pre-treated platelets after co-incubation with PD-L1-GFP transfected A549 cells; assay type: cell-based, human; conditions: platelets pre-treated with 100 μM cycloheximide
Method: Tumor cells were coated with platelets as described previously with slight modifications. Briefly summarized, PRP was obtained from fresh whole blood by centrifugation for 20 minutes at 120 g. Platelets were washed twice with citrate wash buffer (128 mmol/L NaCl, 11 mmol/L glucose, 7.5 mmol/L Na2HPO4, 4.8 mmol/L sodium citrate, 4.3 mmol/L NaH2PO4, 2.4 citric acid, 0.35% bovine serum albumin). In some experiments platelets were pretreated with 5 μg/mL anti-CD42b (clone: AK2), 20 μg/mL anti-integrin β1 (clone: P4C10) and anti-Integrin α5 (clone: JBS5) or corresponding control IgG1 (20 μg/mL) for 30 minutes at 37° C. and 7% CO2. Tumor cells were incubated in platelets at a platelet-tumor cell ratio of […] for 30 minutes at 37° C. and 7% CO2. For immunofluorescence microscopy and FACS analysis cells were fixed in 2% PFA in PBS (pH 7.4) for 10 min at −20° C. prior staining.
For overexpression of PD-L1 (CD274) a True-ORF-GFP-tagged expression vector was used (OriGene Technologies, Rockville, MD, USA). Control cells were transfected using a FLAG tag. The FLAG cDNA was generated by PCR and cloned into the PD-L1-GFP vector using AsiSI and MluI restriction sites. Tumor cells were transfected with 2.5 μg DNA (PD-L1-GFP, FLAG-GFP) using Lipofectamine™ 3000, in accordance to the manufacturer's instructions.

T1 sequence (Q9NZQ7 19-290): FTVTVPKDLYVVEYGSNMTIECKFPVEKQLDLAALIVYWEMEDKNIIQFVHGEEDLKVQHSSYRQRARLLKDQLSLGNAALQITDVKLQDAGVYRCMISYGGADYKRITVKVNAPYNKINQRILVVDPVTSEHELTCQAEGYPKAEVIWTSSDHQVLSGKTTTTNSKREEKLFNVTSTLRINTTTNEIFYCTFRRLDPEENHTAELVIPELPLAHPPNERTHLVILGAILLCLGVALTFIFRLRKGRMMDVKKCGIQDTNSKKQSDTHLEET

Compound: collagen
pPD-L1 expression on the platelet surface upon platelet stimulation [1]: maximized

Compound: Thrombin Receptor Activator Peptide 6 [TRAP-6]
pPD-L1 expression on the platelet surface upon platelet stimulation [1]: maximized

T cell inhibitory effect of PD-L1 expressing platelets [2]: abolished | T cell (CD4+ TEM) activity, IFNγ and TNFα release [3]: restored
Compound: Atezolizumab

Compound: CCCCS(=O)(=O)N[C@@H](Cc1ccc(OCCCCC2CCNCC2)cc1)C(=O)O [Tirofiban]
platelet adhesion to fibronectin [4]: only marginally reduced

Compound: Nc1ncnc2c1ncn2[C@@H]1O[C@H](COP(=O)(O)OP(=O)(O)O)[C@@H](O)[C@H]1O [ADP]
pPD-L1 expression on the platelet surface upon platelet stimulation [1]: maximized

Compound: C[C@@H]1C[C@@H]([C@H](O)CC2CC(=O)NC(=O)C2)C(=O)[C@@H](C)C1 [cycloheximide]
PD-L1-GFP expression in platelets [5]: did not result in a reduction
